Reference: patent US5179085A, “N-substituted α-amino acids and derivatives thereof having pharmaceutical activity” (Warner-Lambert Company, priority 1991, dated 1993)
Counter-ions that a name gives are not always drawn.

Assays:
NMDA receptors = assay: [3H]CPP NMDA receptor binding assay; settings: for % Inhibition (10^-4 M): at 10^-4 M; for IC50: [3H]CPP displacement
Protocol: (§1) Thus, the compounds of Formula I were tested in vitro for their ability to block NMDA receptors in a binding assay with [^3 H]3-(2-carboxypiperazin-4-yl)propyl-1-phosphonic acid ([^3 H]CPP) carried out essentially by a method previously described by Murphy, D. E., et al, Journal of Pharmacology and Experimental Therapeutics, Volume 240, pp 778-784 (1987); and for their ability to inhibit glutamate-induced [Ca^++ ] influx (GCI) carried out essentially by a method previously described by Marcoux, F. W., et al, "Sigma and Phencyclidine like Compounds as Molecular Probes in Biology", pp 735-746, Domino, E. F. and J. N. Kamenka, eds., NPP Books, Ann Arbor, Michigan, 1988 and Choi, D. W., et al, Journal of Neuroscience, Volume 8, pp 185-196 (1988). The aforementioned lest methods are incorporated herein by reference.

[1] = tested on: glutamate-induced [Ca^++ ] influx; assay: Inhibition of glutamate-induced [Ca++] influx (GCI); format: cell-based
Protocol: as §1

Row | SMILES | % Inhibition (10^-4 M) (NMDA receptors) | IC50 (NMDA receptors) | IC50 [1]
1 | CC(NCC=CCP(=O)(O)O)C(=O)O.Cl (racemic) [Example 8p, N-(4-Phosphono-2-butenyl)-DL-alanine, monohydrochloride] | 58% | – | –
2 | O=C(O)CNCC=CCP(=O)(O)O [Example 8o, N-(4-Phosphono-2-butenyl)glycine, monohydrochloride] | – | 1.2 µM | 18 µM
3 | O=C(O)CNCCc1cccc(CP(=O)(O)O)c1 [Example 8g, N-[2-[3-(Phosphonomethyl)phenyl]ethyl] glycine, monohydrochloride] | 86% | – | –
4 | O=C(O)CNCCC=CP(=O)(O)O (mixture of isomers) [Example 10a, N-[4-Phosphono-3-butenyl)glycine, diammonium salt. (Mixture of E and Z isomers)] | – | 2.45 µM | –
5 | O=C(O)CNCc1cccc(CP(=O)(O)O)c1 [Example 8d, N-[[3-(Phosphonomethyl)phenyl]methyl]glycine, hydrochloride] | – | 2.24 µM | 79 µM
6 | O=C(O)CNCc1ccc(CP(=O)(O)O)cc1 [Example 8h, N-[[4-(Phosphonomethyl)phenyl]methyl]glycine, monohydrochloride] | – | 5.2 µM | 120 µM
